In ChEMBL document CHEMBL1159170 (Bioorg Med Chem Lett, 1995):
Active and inactive are the calls of the source. The rule behind the calls is not given here.

Columns and labels:
[1] = tested on: Canis familiaris; experiment: Blockade of dog renal artery dilation by the […] was measured after intravenous administration of 0.05-0.1 mg/kg; format: functional, Canis lupus familiaris
[2] = tested on: Rattus norvegicus; experiment: Compound was tested for mean blood pressure effect in conscious spontaneously hypertensive rats after peroral administration of 30 mg/kg; format: functional; settings: route oral
[3] = tested on: Canis familiaris; experiment: Ability to induce dilation of dog renal artery when administered intravenously; Values is potency versus DPDA; format: functional, Canis lupus familiaris
[4] = tested on: Rattus norvegicus; experiment: Compound was tested for urine flow in conscious spontaneously hypertensive rats after peroral administration of 30 mg/kg; format: functional; settings: route oral
[5] = tested on: Canis familiaris; experiment: Ability to induce dilation of dog femoral artery when administered intravenously; Values is potency versus DPDA; format: functional, Canis lupus familiaris
[6] = molecular target: D(1A) dopamine receptor (Rattus norvegicus, UniProt P18901); experiment: Binding affinity against Dopamine receptor D1 in rat striatal membranes using [3H]SCH-23390; format: cell membranes, Striatum, Membrane
D(1A) dopamine receptor, sequence (P18901 whole entry): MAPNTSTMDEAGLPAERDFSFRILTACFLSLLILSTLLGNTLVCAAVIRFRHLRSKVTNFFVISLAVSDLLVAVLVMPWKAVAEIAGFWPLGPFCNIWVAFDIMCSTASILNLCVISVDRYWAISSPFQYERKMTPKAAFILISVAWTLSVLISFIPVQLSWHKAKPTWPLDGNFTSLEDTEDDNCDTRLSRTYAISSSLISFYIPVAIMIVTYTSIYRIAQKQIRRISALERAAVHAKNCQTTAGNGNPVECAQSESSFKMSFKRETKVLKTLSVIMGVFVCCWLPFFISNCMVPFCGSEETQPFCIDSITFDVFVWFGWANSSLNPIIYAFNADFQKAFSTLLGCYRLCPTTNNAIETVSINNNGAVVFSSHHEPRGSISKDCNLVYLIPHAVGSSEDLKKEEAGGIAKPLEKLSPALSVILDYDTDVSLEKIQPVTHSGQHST

[7] = molecular target: D(2) dopamine receptor (Rattus norvegicus, UniProt P61169); experiment: Binding affinity against Dopamine receptor D2 in rat striatal membranes using [3H]spiperone; format: cell membranes, Striatum, Membrane
D(2) dopamine receptor, sequence (P61169 whole entry): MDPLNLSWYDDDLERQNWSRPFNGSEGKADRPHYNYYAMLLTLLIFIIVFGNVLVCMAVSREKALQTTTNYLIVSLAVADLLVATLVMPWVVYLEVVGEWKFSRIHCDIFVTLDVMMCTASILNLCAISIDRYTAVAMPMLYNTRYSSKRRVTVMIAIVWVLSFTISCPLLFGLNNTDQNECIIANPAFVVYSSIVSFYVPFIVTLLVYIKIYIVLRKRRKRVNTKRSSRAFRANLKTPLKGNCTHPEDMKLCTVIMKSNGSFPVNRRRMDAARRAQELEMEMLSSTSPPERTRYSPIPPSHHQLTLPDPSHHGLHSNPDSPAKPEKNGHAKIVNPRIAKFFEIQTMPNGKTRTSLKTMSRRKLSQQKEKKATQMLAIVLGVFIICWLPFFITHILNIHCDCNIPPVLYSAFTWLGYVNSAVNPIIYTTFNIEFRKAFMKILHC

[8] = tested on: Canis familiaris; experiment: Blockade of dog femoral artery dilation by the D-2 antagonist domperidone was measured after intravenous administration of […]; format: functional, Canis lupus familiaris
[9] = molecular target: T1, Adrenergic receptor alpha-1 (Homo sapiens, UniProt P35348+P25100+P35368); experiment: Compound was tested for its binding affinity against Alpha-1 adrenergic receptor; format: protein assay
T1 sequence (P35348 whole entry): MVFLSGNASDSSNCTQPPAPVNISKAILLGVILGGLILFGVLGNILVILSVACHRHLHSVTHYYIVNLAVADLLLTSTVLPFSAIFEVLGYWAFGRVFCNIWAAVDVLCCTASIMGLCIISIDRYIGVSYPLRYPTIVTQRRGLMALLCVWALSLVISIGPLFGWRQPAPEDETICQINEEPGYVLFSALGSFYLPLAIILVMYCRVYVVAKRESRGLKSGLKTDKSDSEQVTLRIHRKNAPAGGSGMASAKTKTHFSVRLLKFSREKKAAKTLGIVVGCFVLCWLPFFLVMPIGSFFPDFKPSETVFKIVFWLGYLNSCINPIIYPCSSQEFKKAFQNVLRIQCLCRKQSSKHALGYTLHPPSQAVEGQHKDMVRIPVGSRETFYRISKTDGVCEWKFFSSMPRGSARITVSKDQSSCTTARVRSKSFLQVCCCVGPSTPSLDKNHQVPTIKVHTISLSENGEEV
T1 sequence (P25100 whole entry): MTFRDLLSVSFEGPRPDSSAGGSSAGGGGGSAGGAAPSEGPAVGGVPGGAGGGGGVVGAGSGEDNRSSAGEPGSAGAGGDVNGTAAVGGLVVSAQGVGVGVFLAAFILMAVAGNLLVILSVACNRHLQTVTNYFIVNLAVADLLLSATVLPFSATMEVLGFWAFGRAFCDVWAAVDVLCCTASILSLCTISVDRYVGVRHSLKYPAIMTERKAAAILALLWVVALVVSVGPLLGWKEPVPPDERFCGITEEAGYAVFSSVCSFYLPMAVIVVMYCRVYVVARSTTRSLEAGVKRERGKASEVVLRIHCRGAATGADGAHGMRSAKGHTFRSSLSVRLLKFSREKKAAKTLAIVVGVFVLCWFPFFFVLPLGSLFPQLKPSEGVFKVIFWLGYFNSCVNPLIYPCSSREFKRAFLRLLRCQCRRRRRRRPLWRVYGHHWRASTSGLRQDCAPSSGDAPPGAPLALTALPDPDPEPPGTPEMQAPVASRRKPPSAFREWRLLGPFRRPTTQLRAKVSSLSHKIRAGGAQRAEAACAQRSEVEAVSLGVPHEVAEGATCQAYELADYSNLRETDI
T1 sequence (P35368 whole entry): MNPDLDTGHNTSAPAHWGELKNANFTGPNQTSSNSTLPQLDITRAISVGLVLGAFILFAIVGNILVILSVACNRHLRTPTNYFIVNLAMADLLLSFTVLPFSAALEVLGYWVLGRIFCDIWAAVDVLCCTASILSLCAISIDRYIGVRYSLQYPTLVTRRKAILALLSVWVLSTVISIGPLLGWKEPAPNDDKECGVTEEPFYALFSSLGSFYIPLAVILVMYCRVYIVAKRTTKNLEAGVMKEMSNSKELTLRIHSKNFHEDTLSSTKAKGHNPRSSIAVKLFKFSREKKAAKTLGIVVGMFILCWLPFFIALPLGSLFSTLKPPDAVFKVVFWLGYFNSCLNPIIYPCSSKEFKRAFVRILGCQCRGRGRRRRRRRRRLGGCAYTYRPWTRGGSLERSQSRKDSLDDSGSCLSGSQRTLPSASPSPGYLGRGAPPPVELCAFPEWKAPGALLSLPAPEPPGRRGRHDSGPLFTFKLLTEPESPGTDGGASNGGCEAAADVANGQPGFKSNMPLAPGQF

[10] = molecular target: Beta-2 adrenergic receptor (Homo sapiens) (UniProt P07550); experiment: Compound was tested for its binding affinity against beta-2 adrenoceptor; IA is Inactive
Beta-2 adrenergic receptor (Homo sapiens), sequence (P07550 whole entry, looked up): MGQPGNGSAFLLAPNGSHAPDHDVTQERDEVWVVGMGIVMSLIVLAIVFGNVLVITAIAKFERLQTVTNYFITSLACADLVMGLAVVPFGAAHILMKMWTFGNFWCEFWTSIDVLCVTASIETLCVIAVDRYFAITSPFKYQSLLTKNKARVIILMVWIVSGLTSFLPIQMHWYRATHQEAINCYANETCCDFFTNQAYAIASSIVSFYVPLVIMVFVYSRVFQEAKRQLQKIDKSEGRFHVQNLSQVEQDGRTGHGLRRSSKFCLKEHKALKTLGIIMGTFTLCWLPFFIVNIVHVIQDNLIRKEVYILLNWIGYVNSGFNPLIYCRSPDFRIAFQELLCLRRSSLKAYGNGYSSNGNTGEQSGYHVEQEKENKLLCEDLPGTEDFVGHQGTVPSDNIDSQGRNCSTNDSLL

[11] = molecular target: Beta-1 adrenergic receptor (Homo sapiens) (UniProt P08588); experiment: Compound was tested for its binding affinity against Beta-1 adrenergic receptor; IA is Inactive
Beta-1 adrenergic receptor (Homo sapiens), sequence (P08588 whole entry, looked up): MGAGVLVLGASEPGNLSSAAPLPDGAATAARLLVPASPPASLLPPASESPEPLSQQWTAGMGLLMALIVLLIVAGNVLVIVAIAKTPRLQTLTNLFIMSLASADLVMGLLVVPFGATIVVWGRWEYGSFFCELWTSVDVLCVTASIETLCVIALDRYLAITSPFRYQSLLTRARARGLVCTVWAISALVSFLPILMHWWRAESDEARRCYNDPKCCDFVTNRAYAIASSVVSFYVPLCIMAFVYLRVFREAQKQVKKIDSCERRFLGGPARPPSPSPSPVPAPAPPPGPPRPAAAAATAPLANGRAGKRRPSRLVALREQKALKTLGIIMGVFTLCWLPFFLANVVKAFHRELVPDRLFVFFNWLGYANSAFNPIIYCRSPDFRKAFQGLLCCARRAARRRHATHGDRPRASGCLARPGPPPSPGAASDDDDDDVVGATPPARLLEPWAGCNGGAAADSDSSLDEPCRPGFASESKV

SMILES | Blockade [1] [%] | Decrease in blood pressure [2] | Change in blood flow [3] | Cumulative urine volume [4] | Change in blood flow [5] | Ki [6] [nM] | Ki [7] [nM] | Blockade [8] [%] | Log Ki [9] | Log Ki [10] | Log Ki [11]
NCCc1ccc(O)c(O)c1 [DOPAMINE] | 100 | 9.4 | 1 | 4 |  |  |  |  |  |  | 
CCCN(CCC)CCc1ccc(O)c(O)c1 |  |  |  |  | 1 | 4680 | 22.4 | 80 | -5.7 |  | 
CCCN(CCCCCCN1CCC[C@@H]1Cc1ccc(O)c(O)c1)CCc1ccc(O)c(O)c1 | 100 | 18.6 | 6 | 24 | 382 | 18.6 | 3.24 | 70 | -6.41 | inactive | inactive
Oc1ccc(C[C@@H]2CCCN2CCCCCCN2CCC[C@H]2Cc2ccc(O)c(O)c2)cc1O | 100 |  | 1.2 |  | 0.3 | 617 | 14.8 | 0 | -6.41 | inactive | inactive
Oc1ccc(C2CNCCc3c2cc(O)c(O)c3Cl)cc1 (stereo not given) [FENOLDOPAM] | 100 |  | 8 |  | 0.2 |  |  | 20 |  |  | 
Oc1ccc(C[C@H]2CCCN2CCCCCCN2CCC[C@@H]2Cc2ccc(O)c(O)c2)cc1O | 100 | 22.4 | 1.2 | 17 | 359 | 6.46 | 6.17 | 70 | -7.25 | inactive | inactive
CCCCN1CCCC1Cc1ccc(O)c(O)c1 (stereo not given) |  |  |  |  |  | 7.94 | 3.16 |  |  |  | 
Oc1ccc(C[C@H]2CCCN2CCCCCCN2CCC[C@H]2Cc2ccc(O)c(O)c2)cc1O | 100 |  | 9.4 |  | 80 | 575 | 8.91 | 20 | -6.24 | inactive | inactive
